# Data published in the supplement of paper PMC10307832.
# Tests used:
# Test in all cases: relative viability (nuclei count vs DMSO), 5 days (fraction); higher = more cells survive
# MLN4924 + Luminespib = compound: NS(=O)(=O)OC[C@@H]1C[C@@H](n2ccc3c(N[C@H]4CCc5ccccc54)ncnc32)C[C@@H]1O [MLN4924] + CCNC(=O)c1noc(-c2cc(C(C)C)c(O)cc2O)c1-c1ccc(CN2CCOCC2)cc1 [Luminespib] (partner 0.01 µM)
# Method in brief: (§1)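 Lung cancer cell lines in 1536-well plates got either a single drug or a fixed anchor-drug dose together with five library-drug doses (not always all listed) in √10 steps, by pin tool, on the day after seeding. Nuclei were counted after 5 days, and relative viability is the treated-to-vehicle ratio of nuclei counts. Values are medians of duplicate plates.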
# GSK126 + Decitabine = compound: CC[C@H](C)N1C=C(C2=C(C=C(C=C21)C3=CN=C(C=C3)N4CCNCC4)C(=O)NCC5=C(C=C(NC5=O)C)C)C [GSK126] + Nc1ncn([C@H]2C[C@H](O)[C@@H](CO)O2)c(=O)n1 [Decitabine] (partner 2 µM)
# Method in brief: as §1
# Carboplatin + Bortezomib = compound: C1CC(C1)(C(=O)O)C(=O)O.[NH2-].[NH2-].[Pt+2] [Carboplatin] + CC(C)C[C@H](NC(=O)[C@H](Cc1ccccc1)NC(=O)c1cnccn1)B(O)O [Bortezomib] (partner 0.002 µM)
# Method in brief: as §1
# Carboplatin + Crizotinib = compound: C1CC(C1)(C(=O)O)C(=O)O.[NH2-].[NH2-].[Pt+2] [Carboplatin] + C[C@@H](Oc1cc(-c2cnn(C3CCNCC3)c2)cnc1N)c1c(Cl)ccc(F)c1Cl [Crizotinib] (partner 1 µM)
# Method in brief: as §1
Cell Line,relative viability (MLN4924 + Luminespib; first compound 0.04 µM),relative viability (MLN4924 + Luminespib; first compound 0.1265 µM),relative viability (MLN4924 + Luminespib; first compound 0.4 µM),relative viability (MLN4924 + Luminespib; first compound 1.265 µM),relative viability (MLN4924 + Luminespib; first compound 4 µM),relative viability (GSK126 + Decitabine; first compound 0.08 µM),relative viability (GSK126 + Decitabine; first compound 0.253 µM),relative viability (GSK126 + Decitabine; first compound 0.8 µM),relative viability (GSK126 + Decitabine; first compound 2.53 µM),relative viability (GSK126 + Decitabine; first compound 8 µM),relative viability (Carboplatin + Bortezomib; first compound 0.08 µM),relative viability (Carboplatin + Bortezomib; first compound 0.253 µM),relative viability (Carboplatin + Bortezomib; first compound 0.8 µM),relative viability (Carboplatin + Bortezomib; first compound 2.53 µM),relative viability (Carboplatin + Bortezomib; first compound 8 µM),relative viability (Carboplatin + Crizotinib; first compound 0.08 µM),relative viability (Carboplatin + Crizotinib; first compound 0.253 µM),relative viability (Carboplatin + Crizotinib; first compound 0.8 µM),relative viability (Carboplatin + Crizotinib; first compound 2.53 µM),relative viability (Carboplatin + Crizotinib; first compound 8 µM)
RERF-LC-KJ,1.01,0.629,0.328,0.265,0.272,0.717,0.731,0.715,0.735,0.779,1.22,1.2,1.19,1.18,0.937,0.824,0.861,0.84,0.72,0.631
NCI-H2126,0.898,0.843,0.609,0.472,0.309,0.567,0.591,0.609,0.622,0.593,1.14,1.14,1.15,1.15,1.04,1.04,1.06,1.02,0.962,1
LXF-289,0.61,0.425,0.386,0.153,0.144,0.38,0.36,0.395,0.388,0.374,1.03,0.986,0.98,1.01,0.919,0.821,0.839,0.708,0.796,0.764
BEN,0.292,0.201,0.27,0.138,0.158,0.834,0.658,0.78,0.901,0.744,0.837,0.889,0.988,0.898,0.782,1.15,0.946,0.78,0.79,0.761
NCI-H1993,0.482,0.458,0.441,0.406,0.47,0.686,0.597,0.575,0.555,0.605,1.14,1.16,0.915,0.928,0.908,0.958,0.909,0.892,0.775,0.723
